Test results reported in US11691960B2, “2-[thiophen-2-yl)formamido]-N-(phenyl)-2-methylpropanamide derivatives and the use thereof as medicament” (Boehringer Ingelheim International GmbH, priority 2020, dated 2023).
Each block holds one molecule with its values, some of them ahead of it.

Experiments:
human hepatocytes = test: Assay D: metabolic stability in human hepatocytes; type: in vitro ADME; settings: for Hepatocyte stability Assay D: human hepatocytes, 1 μM, % of liver blood flow, mean +− standard deviation
Method: Assay D. Assessment of Metabolic Stability in Human Hepatocytes
The metabolic degradation of the test compound is assayed in a hepatocyte suspension. After recovery from cryopreservation, human hepatocytes are incubated in Dulbecco's modified eagle medium supplemented with 3.5 μg glucagon/500 mL, 2.5 mg insulin/500 mL and 3.75 mg/500 mL hydrocortisone) containing 5% or 50% human serum or in absence of serum.
Following a 30 min preincubation in a cell culture incubator (37° C., 10% CO2), 5 μl of test compound solution (80 μM; derived from a 2 mM DMSO stock solution by dilution 1:25 with medium) are added into 395 μl hepatocyte suspension, resulting in a final cell density of 1 Mio cells/mL, a final test compound concentration of 1 μM, and a final DMSO concentration of 0.05%.
The cells are incubated for six hours (incubator, orbital shaker) and samples (25 μl) are removed from the incubation after 0, 0.5, 1, 2, 4 and 6 hours. Samples are transferred into acetonitrile and pelleted by centrifugation (5 min). The supernatant is transferred to a new 96-deepwell plate, evaporated under nitrogen and resuspended prior to analysis of decline of parent compound by HPLC-MS/MS.
CLint is calculated as follows: CL_INTRINSIC=k/CD×1000/60 k: slope of the regression line for parent decline [h^−1], CD: cell density of vital cells [10e6 cells/mL],
The calculated in vitro hepatic intrinsic clearance is scaled up to the intrinsic in vivo hepatic Clearance and used to predict hepatic in vivo blood clearance (CL) by the use of a liver model (well stirred model): CL_INTRINSIC_INVIVO [ml/min/kg]=(CL_INTRINSIC [μL/min/10e6 cells]×hepatocellularity [10e6 cells/g liver]×liver factor [g/kg bodyweight])/1000 CL[ml/min/kg]=CL_INTRINSIC_INVIVO [ml/min/kg]×hepatic blood flow [ml/min/kg]/(CL_INTRINSIC_INVIVO[ml/min/kg]+hepatic blood flow [ml/min/kg])
Results are expressed as percentage of hepatic blood flow: QH[%]=CL[ml/min/kg]/hepatic blood flow [ml/min/kg])
Hepatocellularity, human: 120×10e6 cells/g liver
Liver factor, human: 25.7 g/kg bodyweight
Blood flow, human: 20.7 ml/(min×kg)

human androgen receptor = human androgen receptor (Homo sapiens (Human), UniProt P10275); test: Assay B: human androgen receptor luciferase reporter assay (Indigo Biosciences); type: cell-based; settings: for Selectivity Assay B/Assay A: ratio IC50 androgen receptor / IC50 IDO1
Source text: Assay B. In Vitro Testing of Androgen Receptor Potency:
The human androgen receptor (AR) assay was run using Product #IB03001 from Indigo Biosciences. The cell line provided in this kit carries a reporter gene, induced upon AR stimulation. This reporter gene is cDNA encoding for beetle luciferase, a 62 kD protein originating from the North American firefly (Photinus pyralis). This luciferase catalyzes the mono-oxidation of D-luciferin yielding oxyluciferin, adenosine monophosphate, pyrophosphate, CO2, and photon emission. The luminescence intensity of the reaction is quantified using a luminometer.
To run the assay, the cells are thawed by adding pre-warmed cell recovery medium to each tube, then placed in a 37° C. water bath. 30000 viable cells in 200 μl are plated (collagen coated plates) and incubated at 37° C., ≥85% humidity, 5% CO2 for 24 hours. Media is replaced with compound screening medium. Cells are then challenged with 125 pM (EC80) 6a-Fl Testosterone and compounds are applied in half logarithmic dilutions from 10 μM to 10 nM. Assay plates are then incubated at 37° C., ≥85% humidity, 5% CO2 for 22-24 hours. Media is replaced with luciferase detection reagent and allowed 5 minutes to equilibrate prior to luminescence quantification.
Data Analysis consisted of calculating percentage of control between 100% (Negative control:6a-Fl Testosterone) and 0 (positive control: no 6a-FL Testosterone). Fitting of normalized values was made 4-Parameter sigmoidal binding curve (Log[conc]) vs. signal.

human Factor Xa = human Factor Xa (Homo sapiens (Human), UniProt P00742); test: Assay C: human Factor Xa chromogenic substrate assay; type: biochemical; settings: for IC50: human Factor Xa 0.86 nM, chromogenic substrate S2765; for Selectivity Assay C/Assay A: ratio IC50 Factor Xa / IC50 IDO1
Method: Assay C. In Vitro Testing of Human Factor Xa Potency:
Measurement of active human Factor Xa using a specific chromogenic substrate which is labeled with a p-nitro-anilino group (pNA). The cleavage in between the binding of the peptide substrate and the pNA-group is followed by a color change, which can be detected at 405 nm. The amount of cleaved substrate is directly proportional to the amount of active Xa.
[…] (100 U) human Factor Xa (Enzyme Research Laboratories; HFXa1011) were solved in 0.444 ml H2O (Millipore), which accords to a stock solution of 19.28 μM or 225 U/ml. Further dilutions were made in the assay buffer (Tris 100 mM, NaCL 150 mM, adjusted to a pH of 7.8 with HCL, containing 0.1% BSA and 0.05% Tween20). 25 mg (1 vial) of the chromogenic substrate S2765 (Chromogenix; S2765) was solved in 3.5 ml H2O (Millipore) to achieve a stock solution of 10 mM.
Compounds were solved and diluted in DMSO where the final dilution in the assay is 1:10 resulting in a final concentration of 1% DMSO.
• the prefinal dilution step was 1:10 in the assay buffer containing 11% DMSO resulting in 10% DMSO • final dilution in the assay is 1:10 resulting in a final concentration of 1% DMSO
Compounds were tested at final concentrations of 10 μM to 0.003 nM or lower. 5 μl human factor Xa (final concentration 0.86 nM), 2 μl compound dilution or assay buffer (containing 10% DMSO) and 8 μl assay buffer were pipetted in triplicates into a 384-well plate and incubated in the Thermomix at 24° C. for 10 minutes.
After addition of 5 μl chromogenic substrate (final concentration 0.5 mM) the enzyme-substrate reaction started and the kinetic measurement with the SpectraMax Monochromator was started within 1-2 minutes. • Parameter of measurement: (Spectra ax, Monochromator) • Absorbance; 1.LM 405 nM • Kinetic: 16 min each 2nd minute (9 times) • Negative Control (NC) 5 μl human factor Xa+10 μl assay buffer+5 μl Substrate • Positive Control (PC): 5 μl human factor Xa+2 μl Nafamostat (commercially available, final concentration: 1 μM)+8 μl assay buffer+5 μl Substrate • Blank (optional): 15 μl assay buffer+5 μl Substrate
Calculation of IC50, KI and the % effect at the highest concentration (Ratio)
For the calculation the average of the Vmax-values in between 120 sec to 720 sec were taken.
A x/y-Plot was created: x=log (M, Compound); y=vmax (drfu/min)
The data were analyzed with the curve fitting model: log (inhibitor) vs. response—Variable slope (four parameters)
The results of this fit were Top, Bottom, Log (IC50, M), Hillslope and IC50 (M)

Chain of human androgen receptor (P10275 whole entry): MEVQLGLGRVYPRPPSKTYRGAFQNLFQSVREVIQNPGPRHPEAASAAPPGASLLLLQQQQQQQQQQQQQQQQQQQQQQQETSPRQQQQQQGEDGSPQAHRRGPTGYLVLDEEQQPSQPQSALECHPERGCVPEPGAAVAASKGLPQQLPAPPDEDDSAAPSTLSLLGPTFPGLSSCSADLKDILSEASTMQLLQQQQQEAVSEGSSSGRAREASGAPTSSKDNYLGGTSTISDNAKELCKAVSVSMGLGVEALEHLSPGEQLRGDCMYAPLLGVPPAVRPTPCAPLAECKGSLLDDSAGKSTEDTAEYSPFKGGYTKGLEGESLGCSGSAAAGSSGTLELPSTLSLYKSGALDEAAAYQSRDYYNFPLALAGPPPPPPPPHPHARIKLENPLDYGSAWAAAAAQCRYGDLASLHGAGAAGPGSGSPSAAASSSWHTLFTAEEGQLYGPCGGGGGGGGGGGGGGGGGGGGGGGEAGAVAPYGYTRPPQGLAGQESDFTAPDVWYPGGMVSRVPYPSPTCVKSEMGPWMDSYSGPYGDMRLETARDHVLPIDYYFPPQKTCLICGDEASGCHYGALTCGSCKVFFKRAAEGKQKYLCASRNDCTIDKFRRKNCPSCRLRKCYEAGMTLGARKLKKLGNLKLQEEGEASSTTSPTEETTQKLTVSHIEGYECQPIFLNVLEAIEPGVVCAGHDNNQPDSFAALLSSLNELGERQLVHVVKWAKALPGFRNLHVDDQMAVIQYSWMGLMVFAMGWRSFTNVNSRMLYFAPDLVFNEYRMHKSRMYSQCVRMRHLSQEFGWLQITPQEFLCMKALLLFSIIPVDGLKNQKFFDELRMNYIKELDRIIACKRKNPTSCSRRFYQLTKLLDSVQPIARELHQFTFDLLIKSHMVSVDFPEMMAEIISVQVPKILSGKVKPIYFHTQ
Chain of human Factor Xa (P00742 235-488): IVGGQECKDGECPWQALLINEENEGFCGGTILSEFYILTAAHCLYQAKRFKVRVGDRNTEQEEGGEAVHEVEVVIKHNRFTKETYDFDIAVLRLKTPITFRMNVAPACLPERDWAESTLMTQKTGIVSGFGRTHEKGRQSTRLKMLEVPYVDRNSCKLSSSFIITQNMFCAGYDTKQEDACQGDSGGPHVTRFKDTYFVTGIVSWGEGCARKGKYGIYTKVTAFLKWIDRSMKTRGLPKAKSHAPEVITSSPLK
Chain of human Factor Xa (P00742 41-179 partner): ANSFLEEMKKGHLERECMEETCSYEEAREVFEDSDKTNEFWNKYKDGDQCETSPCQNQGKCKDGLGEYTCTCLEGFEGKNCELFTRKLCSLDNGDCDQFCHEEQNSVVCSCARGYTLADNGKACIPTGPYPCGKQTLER

- Hepatocyte stability Assay D (human hepatocytes): <4.1 % QH
- IC50 (human androgen receptor; challenge with 125 pM (EC80) 6a-Fl Testosterone, mean +− standard deviation): > 10 µM
- Selectivity Assay B/Assay A (human androgen receptor): >52
- IC50 (human Factor Xa): > 10 µM
- Selectivity Assay C/Assay A (human Factor Xa): >52
Compound: CC(C)(NC(=O)c1ccc(Br)s1)C(=O)Nc1ccc(Br)cc1 [Example 2, 2-[(5-bromothiophen-2-yl)formamido]-N-(4-bromophenyl)-2-methylpropanamide]

- Hepatocyte stability Assay D (human hepatocytes): <4.1 % QH
- Selectivity Assay B/Assay A (human androgen receptor): 43
- IC50 (human Factor Xa): > 10 µM
- Selectivity Assay C/Assay A (human Factor Xa): >57
Compound: CC(C)(NC(=O)c1ccc(Br)s1)C(=O)Nc1ccc(Cl)c(F)c1 [Example 1, 2-[(5-bromothiophen-2-yl)formamido]-N-(4-chloro-3-fluorophenyl)-2-methylpropanamide]

The remaining lines, values behind:

Compound: Cc1ccc(C(=O)NC(C)(C)C(=O)Nc2ccc(C#N)c(C(F)(F)F)c2)s1 [WO98/22432 example 86]
- metabolic stability in human hepatocytes (in words) (human hepatocytes): very low metabolic stability
- antiandrogenic activity (in words) (human androgen receptor): have antiandrogenic activity
- Selectivity Assay B/Assay A (human androgen receptor): 4.9

Compound: CC(C)(NC(=O)c1cccs1)C(=O)Nc1ccc(C#N)c(C(F)(F)F)c1 [WO98/22432 example 53]
- metabolic stability in human hepatocytes (in words) (human hepatocytes): very low metabolic stability
- antiandrogenic activity (in words) (human androgen receptor): have antiandrogenic activity
- Selectivity Assay B/Assay A (human androgen receptor): 0.7

Compound: CC1CCC(C)N1c1ccc(NC(=O)C(C)(C)NC(=O)c2ccc(Cl)s2)cc1 (stereo not shown) [WO2005/111013 Ex. 22]
- metabolic stability in human hepatocytes (in words) (human hepatocytes): medium metabolic stability
- inhibition of the human Factor Xa enzyme (in words) (human Factor Xa): inhibits the human Factor Xa enzyme
- IC50 (human Factor Xa): 0.429 µM
- Selectivity Assay C/Assay A (human Factor Xa): 0.37
